We go through two compounds from ChEMBL document CHEMBL4014297, “Discovery of small molecule inhibitors for the snake venom metalloprotease BaP1 using in silico and in vitro tests” (Bioorg Med Chem Lett, 2017).

In test [1] the target is T1, Snake venom metalloproteinase BaP1 (Bothrops asper) (UniProt P83512).
T1 sequence (whole entry): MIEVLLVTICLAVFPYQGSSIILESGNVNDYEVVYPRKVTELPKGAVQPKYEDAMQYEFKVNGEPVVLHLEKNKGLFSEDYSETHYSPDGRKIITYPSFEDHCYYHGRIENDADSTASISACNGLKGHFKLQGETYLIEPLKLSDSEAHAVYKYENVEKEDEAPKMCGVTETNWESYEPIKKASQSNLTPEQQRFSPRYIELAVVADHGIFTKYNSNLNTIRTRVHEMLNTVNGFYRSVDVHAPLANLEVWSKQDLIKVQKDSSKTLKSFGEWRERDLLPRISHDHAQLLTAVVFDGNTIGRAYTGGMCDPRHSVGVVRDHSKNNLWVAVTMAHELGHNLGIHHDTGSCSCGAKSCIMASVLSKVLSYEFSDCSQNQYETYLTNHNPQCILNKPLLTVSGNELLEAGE
In words: Binding affinity to Bothrops asper venom metalloprotease BaP1 by fluorescence spectroscopic method.

For test [2], the target named is T1, Snake venom metalloproteinase BaP1 (Bothrops asper). In words: Binding affinity to Bothrops asper venom metalloprotease BaP1 assessed as red shift by fluorescence spectroscopic method.
Test [3] concerns the target T2, Snake venom metalloproteinase BaP1 (Bothrops asper, UniProt P83512).
T2 sequence (P83512 whole entry): T1 sequence (whole entry)
Nature of the test: Binding affinity to Bothrops asper venom metalloprotease BaP1 assessed as Stern-Volmer quenching constant by fluorescence spectroscopic method.

Test [4] addresses T1, Snake venom metalloproteinase BaP1 (Bothrops asper). In words: Inhibition of Bothrops asper venom metalloprotease BaP1 assessed as reduction in proteolytic activity at 100 umol/dm3 using azocasein as substrate measured after 90 mins by colorimetric method relative to control.
The target in test [5] is T2, Snake venom metalloproteinase BaP1. In words: Inhibition of Bothrops asper venom metalloprotease BaP1 assessed as reduction in proteolytic activity using azocasein as substrate measured after 90 mins by colorimetric method.

Structures are written as SMILES. Activity calls are given as the source filed them. The calls are words filed in the database; no cut-off is given here.

As usually defined, the Kd is the concentration at which binding is half-saturated. By inhibition is commonly meant how much of the control response was suppressed. Broadly, the IC50 is the midpoint of a concentration-inhibition curve. Take `Cc1ccc(OCC(=O)N/N=C2\C(=O)NC(=O)N=C2O)cc1`: the result in test [1] was Active. In addition, in test [2], the Activity turned out to be 11 nm. In test [3], the Kd turned out to be 37.1 µM. For the same compound, in test [4], the inhibition worked out at 98%. Also, the IC50 in test [5] was determined as 20 µM.
On the same counts, the results for `CC(C)c1ccc(OCC(=O)N/N=C2\C(=O)NC(=O)N=C2O)cc1` are “Active”, 7 nm, 33.6 µM, 95% and 17 µM.
